# Results published in a melting point compilation (Tetko et al.; mined from patent text by program, amines drawn as free bases though some values may be those of a salt).
row,Structure (SMILES),melting point
1,CCCc1c(OCCCOc2cc(NC(=O)c3nnn[nH]3)c(C)cc2Br)ccc(C(C)=O)c1O,63 to 65 °C
2,Ic1c2n(c3ccc(OC4CC4)cc13)CCC2,104 to 105 °C
3,Nn1cc(Br)c(=O)[nH]c1=O,214 to 215 °C
4,Cc1cc(-c2coc3c(C(C)(C)C)cc(C)cc23)c(O)c(C(C)(C)C)c1,132 to 134 °C
5,CCOC(=O)C(CC(=O)O)(C(=O)OCC)n1cccc1,93 to 94 °C
6,O=C(O)c1csc(-c2ncccc2O)n1,> 300 °C
7,CC(CCCc1ccc(F)cc1)c1cc(NC(N)=O)c2c(c1)OC(C)(C)c1ccncc1-2 (stereo not drawn),179 to 181 °C
8,COc1cc(C(=O)OCc2ccc3nc(N)nc(N)c3c2)cc(OC)c1OC,223 to 227 °C
9,COC(=O)N1C(=O)C=CC1=O,61 to 63 °C
10,CCc1nc2c(cnn2CC)c(NC2CCOCC2)c1CNC(=O)c1cc(C)cc(C(=O)NCc2ccc(OC)c(Br)c2)c1,123 to 126 °C
11,CCCCC[C@H]1CO[C@H](c2ccc(C(=O)O)cc2)OC1,210 to 211 °C
12,COC(=O)c1sccc1S(=O)(=O)NC(=O)Nc1nc(C)cc(C)n1,191 to 193 °C
13,CC(=Cc1cc(-n2[nH]c3c(c2=O)CCCC3)ccc1Cl)C(=O)O,278 °C
14,CCN(CC)C(=O)Nc1ccc(S(=O)(=O)N2C(=O)C(NCCCCCNC(C)=O)(c3ccccc3Cl)c3cc(Cl)ccc32)cc1 (stereo not drawn),195 to 198 °C
15,CN(c1cc(OC(F)(F)F)cc2cc(C3=NCC(CC(=O)O)S3)[nH]c12)S(=O)(=O)c1cccs1 (stereo not drawn),225 to 227 °C
16,CCCCCCCCc1cc(C=O)co1,25 °C
17,CN1CCc2cc(O)c(O)c(Sc3ccsc3)c2CC1,189 to 191 °C
18,N=C(N)Nc1nc(CSCCNc2ncc(Cc3ccc(Cl)cc3)c(=O)[nH]2)cs1,205 to 207 °C
19,NCc1cc(Cl)ccc1OCC(N)=O,135 to 137 °C
20,CCCNC(=S)NS(=O)(=O)c1cc2c(cc1OC)OCC(NC(=O)c1cc(F)ccc1OC)C2 (stereo not drawn),172 to 173 °C
21,CC(=O)c1c(C)c2cnc(Nc3ccc(N4CCNCC4)nc3)nc2n(C2CCCC2)c1=O,125 °C
22,CCC(CC)Nc1nc(C)nc(Oc2c(C)cc(C)nc2C)c1[N+](=O)[O-],134 to 135 °C
23,CCOC(=O)Cc1nsc2ccc([N+](=O)[O-])cc12,91 to 92 °C

row,Structure (SMILES),melting point
1,CC(=O)OC1CCC2(C)C(CCC3C2CCC2(C)C(=O)CCC32O)C1 (stereo not drawn),182 to 184 °C
2,COc1ccc(-c2nc(CC(=O)Cc3ccc(OC(C)=O)c(OC(C)=O)c3)cs2)cc1OC,128 °C
3,CC1(C)CCC(C)(C)c2cc(-c3cccc(-c4ccc(C(=O)O)cc4)c3O)ccc21,121 °C
4,Cc1cc(OCC(F)(F)F)c(NC(=O)CBr)c(OCC(F)(F)F)n1,153 to 154 °C
5,CCOC(=O)CCCc1ccc(CCl)cc1,152 to 155 °C
6,CC(C(=O)O)c1ccc([N+](=O)[O-])c(CC(=O)O)c1 (stereo not drawn),169 to 171 °C
7,CN=C(Nc1cc(Cl)cc(Cl)c1)N1CCN(c2ccc(OC(C)=O)cc2OC)CC1,144 °C
8,CC(C)(C)OC(=O)c1cc(N2CCOCC2)cc([N+](=O)[O-])c1,116 to 118 °C
9,CCOc1cc(C)cc(C)c1C,93 to 95 °C
10,O=C1CCC(=O)N1c1ccncc1,232 to 235 °C
11,CC1Oc2ccc(C3=NNC(=O)CC3)cc2N(C)C1=O (stereo not drawn),210 to 211 °C
12,Cc1sc(S(N)(=O)=O)cc1NC(=O)c1cnn2c(C(F)(F)F)cc(-c3ccc(C(F)(F)F)cc3)nc12,297 °C
13,CCOC(=O)COc1ccc(-c2c(Cl)c(CN3C(=O)CCC3=O)nc3sc4c(c23)CCS(=O)(=O)C4)cc1,215 to 216 °C
14,CC[C@H](C1CC1)n1cc(Cl)nc(N2CCc3cc(OC)cc(Cl)c32)c1=O,118 to 120 °C
15,Cc1ccc(S(=O)(=O)NC(=O)C(c2cc3c(cc2Cl)OCO3)c2cn(C)c3cc(CO)ccc23)cc1 (stereo not drawn),207 to 209 °C
16,C#CCN(Cc1cc2c(=O)n(C)c(CN3CCN(CCO)CC3)nc2cc1Cl)c1ccc(C(=O)NCc2cccnc2)cc1,115 to 117 °C
17,COc1cc2c(cc1Nc1ncc(Cl)c(N[C@H]3[C@@H](C(N)=O)[C@@H]4C=C[C@H]3C4)n1)CCN(CC(C)O)CC2 (stereo partly drawn),120 °C
18,CC(=O)CCCCN1CCN(c2ncccn2)CC1,44 to 47 °C
19,N#Cc1ccc(N2CCCCO2)c2ccccc12,111 to 112 °C
20,CCOC(=O)COc1cc(-n2ncc(=O)n(C)c2=O)c(Cl)cc1Cl,115 to 117 °C
21,CCCCC(=O)OCC=C(C)CCC=C(C)CCC=C(C)CCC=C(C)CCC=C(C)CCC=C(C)CCC=C(C)CCC=C(C)CCC=C(C)C,34 to 35 °C
22,CCCCc1ncc(/C=C2\C(=O)NC(=O)N2CCCC)n1Cc1ccc(C(=O)O)cc1,163 to 165 °C
23,CC(C)(C)NC(=O)[C@@H]1C[C@@H]2CCCC[C@@H]2CN1C[C@H]1OC(=O)N[C@H]1Cc1ccccc1,202 to 204 °C

# The next lines start with the values.
row,melting point,Structure (SMILES)
1,80 to 82 °C,C=CCOc1ccc2c(ccc(=O)n2CC=C(C)C)c1
2,62 to 65 °C,CCCCC1(CCCC)CCc2c(OCc3ccc4ccccc4n3)cccc2C1O (stereo not drawn)
3,168 to 169 °C,Fc1ccc(C=Nc2nc3ccc(Cl)cc3s2)cc1
4,260 to 261 °C,Cc1cc(-c2nc3ccccc3c(=O)[nH]2)cc(C)c1OCCO
5,43 to 45 °C,CCCCOc1cc(C)c(O)cc1C
6,130 to 134 °C,CC1(C)CC(=NO)c2cc(-c3ccccc3)ccc2O1
7,125 to 129 °C,CC1=C(c2ccc(O)cc2)C(=O)c2cc(O)ccc21
8,229 to 233 °C,O=S1(=O)c2ccccc2-c2ccc(F)cc21
9,152 to 153 °C,OC(COc1cccc(-c2cc[nH]n2)c1)CN1CCN(c2ccc(Cl)cc2)CC1 (stereo not drawn)
10,159 °C,CCCNC(=O)C1(CC=Cc2ccccc2)c2ccccc2CCc2ccccc21
11,93 to 94 °C,CN(C(=O)COc1onc(C(F)(F)F)c1-c1ccccc1)c1ccccc1
12,248 to 249 °C,Cc1ccccc1C(=O)Nc1ccc(C(=O)N2CCCC(N(C)C(=O)c3ccccc3)c3ccccc32)cc1 (stereo not drawn)
13,103 to 105 °C,CC1(C)Oc2ccc(C#N)cc2C(Oc2ccnnc2)C1(C)O (stereo not drawn)
14,133 to 134 °C,CCOC(=O)c1ccc(OCc2nc(-c3ccco3)oc2C)c(OC)c1
15,77.5 to 79 °C,CC(C)N(CCS(=O)(=O)c1ccc(Cl)cc1)C(=O)Oc1ccccc1
16,220 to 222 °C,CCNc1cccc2c(S(=O)(=O)Nc3cnc(Br)cn3)cccc12
17,294 °C,CC(C)(C)c1ccc(-c2cc3ccc(C(=O)O)cc3o2)cc1
18,135 to 136 °C,Clc1cccc(OCC(Cn2ccnc2)Sc2c(Cl)cccc2Cl)c1Cl (stereo not drawn)
19,57 to 58 °C,Cc1ccccc1-c1cccc(F)c1C#N
20,55 to 56 °C,CC(C)n1cnc2c(Nc3cccc(Cl)c3)nc(NCCN)nc21
21,67 to 69 °C,NN(Cc1ccccc1[N+](=O)[O-])c1ccccc1
22,74 to 74.5 °C,CC(C)(C)C=NNC(=O)OCc1ccccc1
23,210 °C,CCCCNc1cc(C(=O)O)cc(S(N)(=O)=O)c1Nc1ccc(N)cc1
24,90 to 92 °C,COc1ccc(Oc2ccc(C(F)(F)F)cc2Cl)cc1[N+](=O)[O-]
25,143 to 146 °C,CN(O)C(=O)C1=Cc2cc(OCc3ccccc3)ccc2OC1
26,263 to 265 °C,Cc1c(C)c2c(c(C)c1NC(=O)c1ccccc1)CC(C)(C)O2

row,melting point,Structure (SMILES)
1,166 to 168 °C,Cc1ccc(C)c(OCc2ccccc2/C(=N\O)C(N)=O)c1
2,158 °C,CCn1cnc2c(Nc3ccccc3)nc(Cl)nc21
3,153 to 155 °C,COc1ccc(S(=O)(=O)C(c2cc(F)ccc2F)c2cc(N)ncc2Cl)cc1 (stereo not drawn)
4,236 °C,Nc1nc2ccccc2c2c1nc(C1CCOC1)n2CCOc1ccccc1 (stereo not drawn)
5,137 to 138 °C,CC(C)(Sc1cccc(OCc2ccc(-c3ccc([N+](=O)[O-])cc3)o2)c1)C(=O)O
6,> 220 °C,CCOC(=O)c1ccc(NC(=O)CC(C(=O)Nc2ccc(NC(=O)Nc3ccccc3C)cc2)c2ccccc2)cc1 (stereo not drawn)
7,166 to 167 °C,NC(=O)CNC(=O)c1cccc(-c2ccc(F)c3cc(Cc4cc(F)cc(Cl)c4)sc23)c1
8,173 to 175 °C,Nc1ncnc2c1ncn2Cc1oc2ccccc2c(=O)c1-c1ccccc1
9,98 to 106 °C,Cc1noc(NS(=O)(=O)c2ccccc2-c2ccc(-c3ncco3)cc2CCN(C)C(=O)Cc2ccccc2)c1C
10,305 to 308 °C,O=c1c2c(Cc3ccccc3)n[nH]c2c2cccnc2n1-c1ccccc1
11,109 to 118 °C,COc1ccc(/C=C/c2cc(/C=C/c3ccc4[nH]ccc4c3)n[nH]2)cc1OCc1ccccn1
12,97 to 100 °C,Cc1ccccc1CC(=NC#N)NC(NC(=O)Cc1cccc2ccccc12)C(C)(C)C (stereo not drawn)
13,175 °C,O=C1Cc2ccccc2SN1
14,155 °C,FC(F)(F)c1cc(-c2ccc(Cl)cc2)nc2c(I)cnn12
15,136 °C,CN(C)C1=CC(=O)c2ccccc2OC1
16,143 to 144 °C,COc1ccc(-n2nc(Sc3cccc(OC)c3)c(C)c(C#N)c2=O)cc1
17,76 to 77 °C,COC(=O)[C@@H](NC(=O)OC(C)(C)C)[C@@H](S)c1ccccc1
18,137 to 139 °C,Cc1cc(-c2cc(O)c(SCc3ccccc3)c(=O)o2)cc(C)c1O[Si](C)(C)C(C)(C)C
19,207 to 210 °C,NC(=S)c1[nH]c2ccc(Cl)cc2c1S(=O)(=O)c1ccccc1
20,146 to 147 °C,COCCOc1cccc2c1C(=O)c1ccccc1C2=O
21,93 to 95 °C,Cc1ccc(C)c(-c2nn(C(C)(C)C(=O)N(C)C)cc2C)c1
22,136 to 138 °C,CC1CC(=O)NN=C1c1ccc(OCCCN)cc1 (stereo not drawn)
23,159 to 160 °C,COc1nc2ccc(Br)cc2c2c1C(C)(O)c1ccccc1-2 (stereo not drawn)
24,210 to 211 °C,Cc1cc(C)cc(-c2cc(O)c(Sc3ccccc3)c(=O)o2)c1
25,121 to 122 °C,O=S(=O)(c1ccccc1)n1c(Sc2cc(Cl)cc(Cl)c2)cc2cc(Cl)ccc21
26,177 to 178 °C,C[C@@H]1[C@H](c2ccccc2)[C@]1(NS(=O)(=O)c1ccc(-c2cc(C(C)(F)F)on2)s1)C(=O)O
